According to the NIST ThermoML archive (doi:10.1021/je700297c):
± gives the expanded uncertainty stated by the source.

Experiment: activity coefficient (dimensionless); of the first substance listed, at infinite dilution; xn = mol fraction of the nth substance listed
Settings: Liquid, Chromatography, x1 = 0

Row | SMILES | activity coefficient (333 K) | activity coefficient (323 K) | activity coefficient (298 K) | activity coefficient (303 K)
1 | c1ccccc1 [benzene] + CCCCCCCCCCCCCCCC(=O)[O-].CCCCn1cc[n+](C)c1 | 0.7 ± 0.1 |  |  | 
2 | c1ccccc1 [benzene] + CCCCCCCCCCCCCCCCCC(=O)[O-].CCCCn1cc[n+](C)c1 | 0.7 ± 0.1 | 0.7 ± 0.1 |  | 
3 | c1ccccc1 [benzene] + CCCCCCCC[n+]1ccn(C)c1.F[B-](F)(F)F |  | 0.6 ± 0.1 | 0.7 ± 0.1 | 
4 | c1ccccc1 [benzene] + CCCC[n+]1ccn(C)c1.O=S(=O)([N-]S(=O)(=O)C(F)(F)F)C(F)(F)F |  | 0.8 ± 0.1 |  | 
5 | c1ccccc1 [benzene] + CCCCn1cc[n+](C)c1.F[B-](F)(F)F |  | 1.5 ± 0.1 | 1.5 ± 0.1 | 
6 | c1ccccc1 [benzene] + C[n+]1ccn(CCCC#N)c1.N#CN=C=[N-] |  | 2.2 ± 0.2 |  | 2.3 ± 0.2
7 | c1ccccc1 [benzene] + C[n+]1ccn(CCCC#N)c1.O=S(=O)([N-]S(=O)(=O)C(F)(F)F)C(F)(F)F |  | 1.7 ± 0.1 |  | 1.8 ± 0.1
8 | C1CCCCC1 [cyclohexane] + CCCCCCCCCCCCCCCC(=O)[O-].CCCCn1cc[n+](C)c1 | 0.9 ± 0.1 |  |  | 
9 | C1CCCCC1 [cyclohexane] + CCCCCCCCCCCCCCCCCC(=O)[O-].CCCCn1cc[n+](C)c1 | 1.2 ± 0.1 | 1.1 ± 0.1 |  | 
10 | C1CCCCC1 [cyclohexane] + CCCCCCCC[n+]1ccn(C)c1.F[B-](F)(F)F |  | 3.9 ± 0.3 | 5.3 ± 0.4 | 
11 | C1CCCCC1 [cyclohexane] + CCCC[n+]1ccn(C)c1.O=S(=O)([N-]S(=O)(=O)C(F)(F)F)C(F)(F)F |  | 6.7 ± 0.5 |  | 
12 | C1CCCCC1 [cyclohexane] + CCCCn1cc[n+](C)c1.F[B-](F)(F)F |  | 24.7 ± 1.7 | 30.7 ± 2.1 | 
13 | C1CCCCC1 [cyclohexane] + C[n+]1ccn(CCCC#N)c1.N#CN=C=[N-] |  | 58.9 ± 4 |  | 81.7 ± 5.6
14 | C1CCCCC1 [cyclohexane] + C[n+]1ccn(CCCC#N)c1.O=S(=O)([N-]S(=O)(=O)C(F)(F)F)C(F)(F)F |  | 45.9 ± 3.1 |  | 55.4 ± 3.8
15 | CCO [ethanol] + CCCCCCCCCCCCCCCC(=O)[O-].CCCCn1cc[n+](C)c1 | 0.4 ± 0.1 |  |  | 
16 | CCO [ethanol] + CCCCCCCCCCCCCCCCCC(=O)[O-].CCCCn1cc[n+](C)c1 | 0.4 ± 0.1 | 0.5 ± 0.1 |  | 
17 | CCO [ethanol] + CCCCCCCC[n+]1ccn(C)c1.F[B-](F)(F)F |  | 0.4 ± 0.1 | 0.5 ± 0.1 | 
18 | CCO [ethanol] + CCCC[n+]1ccn(C)c1.O=S(=O)([N-]S(=O)(=O)C(F)(F)F)C(F)(F)F |  | 1.2 ± 0.1 |  | 
19 | CCO [ethanol] + CCCCn1cc[n+](C)c1.F[B-](F)(F)F |  | 1 ± 0.1 | 1.1 ± 0.1 | 
20 | CCO [ethanol] + C[n+]1ccn(CCCC#N)c1.N#CN=C=[N-] |  | 0.4 ± 0.1 |  | 0.5 ± 0.1
21 | CCO [ethanol] + C[n+]1ccn(CCCC#N)c1.O=S(=O)([N-]S(=O)(=O)C(F)(F)F)C(F)(F)F |  | 1.4 ± 0.1 |  | 1.7 ± 0.1
22 | CCOC(C)=O [ethyl acetate] + CCCCCCCCCCCCCCCC(=O)[O-].CCCCn1cc[n+](C)c1 | 1 ± 0.1 |  |  | 
23 | CCOC(C)=O [ethyl acetate] + CCCCCCCCCCCCCCCCCC(=O)[O-].CCCCn1cc[n+](C)c1 | 1.1 ± 0.1 | 1.1 ± 0.1 |  | 

Row | SMILES | activity coefficient (333 K) | activity coefficient (323 K) | activity coefficient (298 K) | activity coefficient (303 K)
24 | CCOC(C)=O [ethyl acetate] + CCCCCCCC[n+]1ccn(C)c1.F[B-](F)(F)F |  | 0.8 ± 0.1 | 0.9 ± 0.1 | 
25 | CCOC(C)=O [ethyl acetate] + CCCC[n+]1ccn(C)c1.O=S(=O)([N-]S(=O)(=O)C(F)(F)F)C(F)(F)F |  | 0.7 ± 0.1 |  | 
26 | CCOC(C)=O [ethyl acetate] + CCCCn1cc[n+](C)c1.F[B-](F)(F)F |  | 1.7 ± 0.1 | 1.8 ± 0.1 | 
27 | CCOC(C)=O [ethyl acetate] + C[n+]1ccn(CCCC#N)c1.N#CN=C=[N-] |  | 2.7 ± 0.2 |  | 2.8 ± 0.2
28 | CCOC(C)=O [ethyl acetate] + C[n+]1ccn(CCCC#N)c1.O=S(=O)([N-]S(=O)(=O)C(F)(F)F)C(F)(F)F |  | 2.1 ± 0.2 |  | 2.1 ± 0.2
29 | CCCCCCC [heptane] + CCCCCCCCCCCCCCCC(=O)[O-].CCCCn1cc[n+](C)c1 | 1.4 ± 0.1 |  |  | 
30 | CCCCCCC [heptane] + CCCCCCCCCCCCCCCCCC(=O)[O-].CCCCn1cc[n+](C)c1 | 1.5 ± 0.1 | 1.8 ± 0.1 |  | 
31 | CCCCCCC [heptane] + CCCCCCCC[n+]1ccn(C)c1.F[B-](F)(F)F |  | 8.4 ± 0.6 | 11 ± 0.8 | 
32 | CCCCCCC [heptane] + CCCC[n+]1ccn(C)c1.O=S(=O)([N-]S(=O)(=O)C(F)(F)F)C(F)(F)F |  | 15.5 ± 1.1 |  | 
33 | CCCCCCC [heptane] + CCCCn1cc[n+](C)c1.F[B-](F)(F)F |  | 70.3 ± 4.8 | 83.5 ± 5.7 | 
34 | CCCCCCC [heptane] + C[n+]1ccn(CCCC#N)c1.N#CN=C=[N-] |  | 197 ± 14 |  | 231 ± 16
35 | CCCCCCC [heptane] + C[n+]1ccn(CCCC#N)c1.O=S(=O)([N-]S(=O)(=O)C(F)(F)F)C(F)(F)F |  | 126 ± 8.7 |  | 134 ± 9.2
36 | C=CCCCC [hex-1-ene] + CCCCCCCCCCCCCCCC(=O)[O-].CCCCn1cc[n+](C)c1 | 1.1 ± 0.1 |  |  | 
37 | C=CCCCC [hex-1-ene] + CCCCCCCCCCCCCCCCCC(=O)[O-].CCCCn1cc[n+](C)c1 | 1.2 ± 0.1 | 1.4 ± 0.1 |  | 
38 | C=CCCCC [hex-1-ene] + CCCCCCCC[n+]1ccn(C)c1.F[B-](F)(F)F |  | 3.9 ± 0.3 | 4.9 ± 0.3 | 
39 | C=CCCCC [hex-1-ene] + CCCC[n+]1ccn(C)c1.O=S(=O)([N-]S(=O)(=O)C(F)(F)F)C(F)(F)F |  | 6 ± 0.4 |  | 
40 | C=CCCCC [hex-1-ene] + CCCCn1cc[n+](C)c1.F[B-](F)(F)F |  | 21.8 ± 1.5 | 25.8 ± 1.8 | 
41 | C=CCCCC [hex-1-ene] + C[n+]1ccn(CCCC#N)c1.N#CN=C=[N-] |  | 60.4 ± 4.1 |  | 71.7 ± 4.9
42 | C=CCCCC [hex-1-ene] + C[n+]1ccn(CCCC#N)c1.O=S(=O)([N-]S(=O)(=O)C(F)(F)F)C(F)(F)F |  | 47.1 ± 3.2 |  | 54.2 ± 3.7
43 | CCCCCC [hexane] + CCCCCCCCCCCCCCCC(=O)[O-].CCCCn1cc[n+](C)c1 | 1.3 ± 0.1 |  |  | 
44 | CCCCCC [hexane] + CCCCCCCCCCCCCCCCCC(=O)[O-].CCCCn1cc[n+](C)c1 | 1.4 ± 0.1 | 1.7 ± 0.1 |  | 
45 | CCCCCC [hexane] + CCCCCCCC[n+]1ccn(C)c1.F[B-](F)(F)F |  | 6.7 ± 0.5 | 8.6 ± 0.6 | 
46 | CCCCCC [hexane] + CCCC[n+]1ccn(C)c1.O=S(=O)([N-]S(=O)(=O)C(F)(F)F)C(F)(F)F |  | 12.8 ± 0.9 |  | 

Row | SMILES | activity coefficient (333 K) | activity coefficient (323 K) | activity coefficient (298 K) | activity coefficient (303 K)
47 | CCCCCC [hexane] + CCCCn1cc[n+](C)c1.F[B-](F)(F)F |  | 50.6 ± 3.5 | 65.9 ± 4.5 | 
48 | CCCCCC [hexane] + C[n+]1ccn(CCCC#N)c1.N#CN=C=[N-] |  | 145 ± 9.9 |  | 213 ± 15
49 | CCCCCC [hexane] + C[n+]1ccn(CCCC#N)c1.O=S(=O)([N-]S(=O)(=O)C(F)(F)F)C(F)(F)F |  | 113 ± 7.7 |  | 126 ± 8.6
50 | CO [methanol] + CCCCCCCCCCCCCCCC(=O)[O-].CCCCn1cc[n+](C)c1 | 0.3 ± 0.1 |  |  | 
51 | CO [methanol] + CCCCCCCCCCCCCCCCCC(=O)[O-].CCCCn1cc[n+](C)c1 | 0.3 ± 0.1 | 0.3 ± 0.1 |  | 
52 | CO [methanol] + CCCCCCCC[n+]1ccn(C)c1.F[B-](F)(F)F |  | 0.3 ± 0.1 | 0.3 ± 0.1 | 
53 | CO [methanol] + CCCC[n+]1ccn(C)c1.O=S(=O)([N-]S(=O)(=O)C(F)(F)F)C(F)(F)F |  | 0.8 ± 0.1 |  | 
54 | CO [methanol] + CCCCn1cc[n+](C)c1.F[B-](F)(F)F |  | 0.7 ± 0.1 | 0.8 ± 0.1 | 
55 | CO [methanol] + C[n+]1ccn(CCCC#N)c1.N#CN=C=[N-] |  | 0.3 ± 0.1 |  | 0.3 ± 0.1
56 | CO [methanol] + C[n+]1ccn(CCCC#N)c1.O=S(=O)([N-]S(=O)(=O)C(F)(F)F)C(F)(F)F |  | 1 ± 0.1 |  | 1.1 ± 0.1
57 | CC1CCCCC1 [methylcyclohexane] + CCCCCCCCCCCCCCCC(=O)[O-].CCCCn1cc[n+](C)c1 | 1 ± 0.1 |  |  | 
58 | CC1CCCCC1 [methylcyclohexane] + CCCCCCCCCCCCCCCCCC(=O)[O-].CCCCn1cc[n+](C)c1 | 1.3 ± 0.1 | 1.3 ± 0.1 |  | 
59 | CC1CCCCC1 [methylcyclohexane] + CCCCCCCC[n+]1ccn(C)c1.F[B-](F)(F)F |  | 5.3 ± 0.4 | 6.7 ± 0.5 | 
60 | CC1CCCCC1 [methylcyclohexane] + CCCC[n+]1ccn(C)c1.O=S(=O)([N-]S(=O)(=O)C(F)(F)F)C(F)(F)F |  | 9.1 ± 0.6 |  | 
61 | CC1CCCCC1 [methylcyclohexane] + CCCCn1cc[n+](C)c1.F[B-](F)(F)F |  | 35.5 ± 2.4 | 43.7 ± 3 | 
62 | CC1CCCCC1 [methylcyclohexane] + C[n+]1ccn(CCCC#N)c1.N#CN=C=[N-] |  | 84.9 ± 5.8 |  | 118 ± 8.1
63 | CC1CCCCC1 [methylcyclohexane] + C[n+]1ccn(CCCC#N)c1.O=S(=O)([N-]S(=O)(=O)C(F)(F)F)C(F)(F)F |  | 66.2 ± 4.5 |  | 75.1 ± 5.1
64 | C=CCCCCCC [oct-1-ene] + CCCCCCCCCCCCCCCC(=O)[O-].CCCCn1cc[n+](C)c1 | 1.4 ± 0.1 |  |  | 
65 | C=CCCCCCC [oct-1-ene] + CCCCCCCCCCCCCCCCCC(=O)[O-].CCCCn1cc[n+](C)c1 | 1.4 ± 0.1 | 1.7 ± 0.1 |  | 
66 | C=CCCCCCC [oct-1-ene] + CCCCCCCC[n+]1ccn(C)c1.F[B-](F)(F)F |  | 6.6 ± 0.5 | 7.8 ± 0.5 | 
67 | C=CCCCCCC [oct-1-ene] + CCCC[n+]1ccn(C)c1.O=S(=O)([N-]S(=O)(=O)C(F)(F)F)C(F)(F)F |  | 12.3 ± 0.8 |  | 
